Assay results published in patent US8802674B2, “Aminopyrimidine derivatives as LRRK2 modulators” (Genentech, Inc., priority 2011, dated 2014).

Each compound was assayed against LRRK2 (Homo sapiens (Human), UniProt Q5S007, G2019S) (assay: In Vitro LRRK2 LabChip Assay). Conditions: Table 4.
Format: biochemical
Procedure: In Vitro LRRK2 LabChip Assay
This assay was used to determine a compound's potency in inhibiting activity of LRRK2 by determining, Kiapp, IC50, or percent inhibition values. In a polypropylene plate, LRRK2, fluorescently-labeled peptide substrate, ATP and test compound were incubated together. Using a LabChip 3000 (Caliper Life Sciences), after the reaction the substrate was separated by capillary electrophoresis into two populations: phosphorylated and unphosphorylated. The relative amounts of each were quantitated by fluorescence intensity. LRRK2 Ki was determined according to the equation: Y=V0*(1−((x+Ki*(1+S/Km)+Et)/(2*Et)−(((x+Ki*(1+S/Km)+Et)^2−(4*Et*x))^0.5)/(2*Et))). Ki values in Table 4 and elsewhere herein are shown in μM.
Assay conditions and materials used were as follows:
Compound Plate Preparation:
For serial dilutions, 34.6 μl DMSO was added to columns 3-24. For the assay controls, 37.5 μl DMSO was added to columns 1 and 2 of rows A and P. a,d and 50 μl 25 μM G-028831 (Staurosporine) was added to columns 1 and 2, row B. For the samples: to start at 100 μM, 37.5 μl DMSO was to columns 1 and 2, then 12.5 μl 10 mM compound; to start at 10 μM, 78 μl DMSO was added to columns 1 & 2, then 2 μl 10 mM compound; and to start at 1 μM, 25 μM compound (2 μl 10 mM cmpd+798 μl DMSO) was added to empty columns 1 and 2. A Precision instrument was used to perform 1:3.16 serial dilutions (“PLK_BM_serial_halflog”).
ATP was diluted to 282.1 μM in Complete Kinase Buffer (final concentration was 130 μM).
Total and Blank Preparation:
In Complete Reaction Buffer, substrate was diluted to 4 μM. Equal volumes of Complete Reaction Buffer and 4 μM substrate were combined to obtain the blank. Equal volumes of Complete Reaction Buffer and 4 μM substrate were combined and to the combined solution was added 2× final LRRK2 concentration.
To a 50 μl polypropylene plate, 5 μl/well buffer/substrate was added by hand to Blank wells. A Biomek FX was used to start the kinase reaction (“PLK SAR 23 ATP”). The following were added to the appropriate wells:
5 μl/well compound/ATP in Assay Plate;
5 μl/well kinase/substrate in Assay Plate;
The plate was incubated for 2 hours in the dark. Biomek FX was used to stop the kinase reaction (“PLK Stop”), and 10 μl/well Stop solution was added to the Assay Plate. Results were read on the LabChip 3000.
The LabChip 3000 was run using the job “LRRK2IC50” with the following job settings: […]

Chain of LRRK2 (Q5S007 970-2527 G2019S limits assumed): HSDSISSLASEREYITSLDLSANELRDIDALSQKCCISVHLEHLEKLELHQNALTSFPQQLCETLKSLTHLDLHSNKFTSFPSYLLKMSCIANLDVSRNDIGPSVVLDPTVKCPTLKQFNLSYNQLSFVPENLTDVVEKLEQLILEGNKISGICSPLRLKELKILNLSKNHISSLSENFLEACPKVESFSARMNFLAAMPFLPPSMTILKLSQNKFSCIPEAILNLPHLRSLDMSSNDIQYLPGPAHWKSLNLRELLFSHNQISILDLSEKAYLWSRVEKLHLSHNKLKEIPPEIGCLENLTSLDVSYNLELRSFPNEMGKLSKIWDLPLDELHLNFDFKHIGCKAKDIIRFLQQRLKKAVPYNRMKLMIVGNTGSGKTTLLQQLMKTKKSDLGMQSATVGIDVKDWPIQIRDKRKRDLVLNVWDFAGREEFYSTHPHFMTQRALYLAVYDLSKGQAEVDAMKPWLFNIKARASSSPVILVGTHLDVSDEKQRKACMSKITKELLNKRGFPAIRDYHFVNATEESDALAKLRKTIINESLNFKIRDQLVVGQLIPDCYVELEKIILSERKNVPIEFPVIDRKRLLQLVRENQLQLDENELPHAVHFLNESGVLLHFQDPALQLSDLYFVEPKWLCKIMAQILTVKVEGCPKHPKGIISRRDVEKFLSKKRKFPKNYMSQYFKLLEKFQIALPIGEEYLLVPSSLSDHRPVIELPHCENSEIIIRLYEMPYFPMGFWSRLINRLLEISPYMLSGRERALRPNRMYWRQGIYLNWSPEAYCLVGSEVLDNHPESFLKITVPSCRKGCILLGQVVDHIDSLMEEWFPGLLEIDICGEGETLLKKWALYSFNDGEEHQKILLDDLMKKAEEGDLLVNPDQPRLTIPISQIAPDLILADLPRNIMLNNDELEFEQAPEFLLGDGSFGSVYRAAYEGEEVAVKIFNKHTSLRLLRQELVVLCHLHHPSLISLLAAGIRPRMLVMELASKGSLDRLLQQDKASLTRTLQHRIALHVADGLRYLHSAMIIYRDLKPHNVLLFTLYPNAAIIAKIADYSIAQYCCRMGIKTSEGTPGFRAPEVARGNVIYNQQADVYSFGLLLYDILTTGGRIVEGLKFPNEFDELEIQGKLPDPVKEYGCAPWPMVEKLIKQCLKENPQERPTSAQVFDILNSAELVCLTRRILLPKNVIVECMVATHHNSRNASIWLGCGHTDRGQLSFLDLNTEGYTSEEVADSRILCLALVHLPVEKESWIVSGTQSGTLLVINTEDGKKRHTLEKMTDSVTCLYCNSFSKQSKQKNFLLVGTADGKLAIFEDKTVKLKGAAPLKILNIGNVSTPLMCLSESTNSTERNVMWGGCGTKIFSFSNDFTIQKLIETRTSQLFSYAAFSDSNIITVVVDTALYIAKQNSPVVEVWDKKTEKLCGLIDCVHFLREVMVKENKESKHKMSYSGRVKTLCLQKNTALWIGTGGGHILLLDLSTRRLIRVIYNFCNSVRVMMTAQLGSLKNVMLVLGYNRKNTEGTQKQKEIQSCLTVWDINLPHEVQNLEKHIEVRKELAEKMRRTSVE

Row | SMILES | Ki [nM]
1 | CNc1nc(Nc2ccc(CC(=O)N3CCOCC3)cc2OC)ncc1Cl [Example 222, 2-[4-(5-Chloro-4-methylamino-pyrimidin-2-ylamino)-3-methoxy-phenyl]-1-morpholin-4-yl-ethanone] | 9
2 | CNc1nc(Nc2ccc(C(=O)N3CCN(C4COC4)CC3)cc2OC)ncc1Br [Example 78, [4-(5-Bromo-4-methylamino-pyrimidin-2-ylamino)-3-methoxy-phenyl]-(4-oxetan-3-yl-piperazin-1-yl)-methanone] | 8
3 | COCCNc1nc(Nc2ccc(C(=O)N3CCOCC3)cc2OC)ncc1Cl [Example 105, {4-[5-Chloro-4-(2-methoxy-ethylamino)-pyrimidin-2-ylamino]-3-methoxy-phenyl}-morpholin-4-yl-methanone] | 9.4
4 | CNc1nc(Nc2cc(OC)c(C(=O)NC3CCN(C)CC3)cc2Cl)ncc1C(F)(F)F [Example 173, 5-Chloro-2-methoxy-4-(4-methylamino-5-trifluoromethyl-pyrimidin-2-ylamino)-N-(1-methyl-piperidin-4-yl)-benzamide] | 1.5
5 | CNc1nc(Nc2ccc(C(=O)N3CCOCC3)cc2OC2CC2)ncc1Cl [Example 217, [4-(5-Chloro-4-methylamino-pyrimidin-2-ylamino)-3-cyclopropoxy-phenyl]-morpholin-4-yl-methanone] | 2
6 | CNc1nc(Nc2ccc(C(=O)NCC(F)F)cc2OC)ncc1C#N [Example 205, 4-(5-Cyano-4-methylamino-pyrimidin-2-ylamino)-N-(2,2-difluoro-ethyl)-3-methoxy-benzamide] | 12.1
7 | CNc1nc(Nc2cc(OC)c(C(=O)NC3CC3)cc2Cl)ncc1C(F)(F)F [Example 154, 5-Chloro-N-cyclopropyl-2-methoxy-4-(4-methylamino-5-trifluoromethyl-pyrimidin-2-ylamino)-benzamide] | 5.2
8 | CNc1nc(Nc2ccc(C(=O)NC(C)(C)C)cc2OC)ncc1C#N [Example 206, N-tert-Butyl-4-(5-cyano-4-methylamino-pyrimidin-2-ylamino)-3-methoxy-benzamide] | 4.6
9 | CNc1nc(Nc2cc(F)c(C(=O)N(C)CC(C)(C)O)cc2OC)ncc1C(F)(F)F [Example 248, 2-fluoro-N-(2-hydroxy-2-methylpropyl)-5-methoxy-N-methyl-4-(4-(methylamino)-5-(trifluoromethyl)pyrimidin-2-ylamino)benzamide] | 9.2
10 | CNc1nc(Nc2ccc(C(=O)N3CC(C)CC(C)C3)cc2OC)ncc1Cl (stereo not shown) [Example 11, [4-(5-Chloro-4-methylamino-pyrimidin-2-ylamino)-3-methoxy-phenyl]-(3,5-dimethyl-piperidin-1-yl)-methanone] | 6.2
11 | COCCNc1nc(Nc2ccc(C(=O)N3CCOCC3)cc2OC)ncc1Br [Example 229, {4-[5-Bromo-4-(2-methoxy-ethylamino)-pyrimidin-2-ylamino]-3-methoxy-phenyl}-morpholin-4-yl-methanone] | 4.1
12 | CNc1nc(Nc2ccc(C(=O)N(C)C)cc2OC)ncc1Cl [Example 4, 4-(5-Chloro-4-methylamino-pyrimidin-2-ylamino)-3-methoxy-N,N-dimethyl-benzamide] | 6.1
13 | CNc1nc(Nc2ccc(C(=O)N3CCC3)cc2OC)ncc1Cl [Example 16, Azetidin-1-yl-[4-(5-chloro-4-methylamino-pyrimidin-2-ylamino)-3-methoxy-phenyl]-methanone] | 5.2
14 | CNc1nc(Nc2cc(OC)c(C(=O)N3CCC(OC)C3)cc2Cl)ncc1C(F)(F)F (stereo not shown) [Example 246, (5-chloro-2-methoxy-4-(4-(methylamino)-5-(trifluoromethyl)pyrimidin-2-ylammo)phenyl)(3-methoxypyrrolidin-1-yl)methanone] | 5
15 | CNc1nc(Nc2ccc(C(=O)N3CCOCC3)cc2C2CC2)ncc1Cl [Example 193, [4-(5-Chloro-4-methylamino-pyrimidin-2-ylamino)-3-cyclopropyl-phenyl]-morpholin-4-yl-methanone] | 23.9
16 | CNc1nc(Nc2cc(F)c(C(=O)N3C[C@@H](C)O[C@@H](C)C3)cc2OC)ncc1C(F)(F)F [Example 249, ((2S,6R)-2,6-dimethylmorpholino) (2-fluoro-5-methoxy-4-(4-(methylamino)-5-(trifluoromethyl)pyrimidin-2-ylamino)phenyl) methanone] | 8
17 | CNc1nc(Nc2cc(OC)c(C(=O)N3CCNCC3)cc2Cl)ncc1C(F)(F)F [Example 176, [5-Chloro-2-methoxy-4-(4-methylamino-5-trifluoromethyl-pyrimidin-2-ylamino)-phenyl]-piperazin-1-yl-methanone] | 4.1
18 | CCNC(=O)c1ccc(Nc2ncc(C#N)c(NC)n2)c(OC)c1 [Example 203, 4-(5-Cyano-4-methylamino-pyrimidin-2-ylamino)-N-ethyl-3-methoxy-benzamide] | 9.6
19 | CNc1nc(Nc2ccc(C(=O)N3CCOCC3)cc2O)ncc1Cl [Example 82, [4-(5-Chloro-4-methylamino-pyrimidin-2-ylamino)-3-hydroxy-phenyl]-morpholin-4-yl-methanone] | 28.9
20 | CNc1nc(Nc2ccc(C(=O)N3CCN(C(C)=O)CC3)cc2OC)ncc1Cl [Example 25, l-{4-[4-(5-Chloro-4-methylamino-pyrimidin-2-ylamino)-3-methoxy-benzoyl]-piperazin-1-yl}-ethanone] | 3.4
21 | CNc1nc(Nc2cc(OC)c(C(=O)N3CCC(C#N)C3)cc2Cl)ncc1C(F)(F)F (stereo not shown) [Example 177, 1-[5-Chloro-2-methoxy-4-(4-methylamino-5-trifluoromethyl-pyrimidin-2-ylamino)-benzoyl]-pyrrolidine-3-carbonitrile] | 2.9
22 | CNC(=O)c1cc(Cl)c(Nc2ncc(Cl)c(NC)n2)cc1OC [Example 144, 5-Chloro-4-(5-chloro-4-methylamino-pyrimidin-2-ylamino)-2-methoxy-N-methyl-benzamide] | 11.3
23 | CNc1nc(Nc2ccc(C(=O)N3CCCCC3)cc2OC)ncc1C#N [Example 204, 2-[2-Methoxy-4-(piperidine-1-carbonyl)-phenylamino]-4-methylamino-pyrimidine-5-carbonitrile] | 3.3
24 | COc1cc(C(=O)N2CCOCC2)ccc1Nc1ncc(Cl)c(OC(C)C)n1 [Example 59, [4-(5-Chloro-4-isopropoxy-pyrimidin-2-ylamino)-3-methoxy-phenyl]-morpholin-4-yl-methanone] | 13

Same assay, conditions: Table 6

Row | SMILES | Ki [nM]
25 | CCNc1nc(Nc2ccc(C(=O)N3CCOCC3)cc2OC(F)(F)F)ncc1C(F)(F)F [Example 312, (4-(4-(ethylamino)-5-(trifluoromethyl)pyrimidin-2-ylamino)-3-(trifluoromethoxy)phenyl)(morpholino) methanone] | 28
26 | CNc1nc(Nc2cc(OC)c(C(=O)N3CCOCC3)cc2Cl)ncc1Cl [Example 295, (5-chloro-4-(5-chloro-4-(methyl-amino)pyrimidin-2-ylamino)-2-methoxy-phenyl)(morpholino) methanone] | 6
27 | CCN(CC)C(=O)c1ccc(Nc2ncc(C(F)(F)F)c(NC)n2)c(OC)c1 [Example 275, N,N-Diethyl-3-methoxy-4-(4-methylamino-5-trifluoromethyl-pyrimidin-2-ylamino)-benzamide] | 3.3
28 | CNc1nc(Nc2ccc(C(=O)N3CC4CCC(C3)O4)cc2OC)ncc1C(F)(F)F [Example 272, [3-Methoxy-4-(4-methylamino-5-trifluoromethyl-pyrimidin-2-ylamino)-phenyl]-(8-oxa-3-aza-bicyclo[3.2.1]oct-3-yl)-methanone] | 1.7
29 | CNc1nc(Nc2ccc(C(=O)N3CCOCC3)c(F)c2OC)ncc1C(F)(F)F [Example 297, [2-Fluoro-3-methoxy-4-(4-methylamino-5-trifluoromethyl-pyrimidin-2-ylamino)-phenyl]-morpholin-4-yl-methanone] | 14.5
30 | CNc1nc(Nc2ccc(C(=O)N3CC(C)OC(C)C3)cc2OC)ncc1C(F)(F)F (stereo not shown) [Example 277, (2,6-Dimethyl-morpholin-4-yl)-[3-methoxy-4-(4-methylamino-5-trifluoromethyl-pyrimidin-2-ylamino)-phenyl]-methanone] | 4.9
31 | CNc1nc(Nc2ccc(C(=O)N3CCC(OC)CC3)cc2OC)ncc1C(F)(F)F [Example 280, [3-Methoxy-4-(4-methylamino-5-trifluoromethyl-pyrimidin-2-ylamino)-phenyl]-(4-methoxy-piperidin-1-yl)-methanone] | 1.6
